# Measurements taken from patent US11883383B2, “Pharmaceutically acceptable salts of [3-(4- {2-butyl-1-[4-(4-chloro-phenoxy)-phenyl]-1H-imidazol-4-yl} -phenoxy)-propyl]-diethyl-amine” (vTv Therapeutics LLC, priority 2018, dated 2024).
# Where two headings read alike, the source gives them in different places.
# Experiments:
# Type in all cases: physicochemical
# [1] = Thermogravimetric analysis (TGA) weight loss of crystalline hits; conditions: for Speculated Form: based on TGA/DSC characterization data
# Method: (§1) TGA data were collected using a TA Q500 and Q550 from TA Instruments. DSC was performed using a TA Q2000 from TA Instruments. DSC was calibrated with Indium reference standard and the TGA was calibrated using nickel reference standard.
# (§2) All hits were further characterized by TGA and DSC, with the stoichiometry determined by ^1H NMR or HPLC/IC. Based on the characterization data in Table 2 below, most of them were considered to be anhydrates.
# [2] = Differential scanning calorimetry (DSC) endotherms of crystalline hits; conditions: onset temperature
# Method: as §1, §2
# [3] = Stoichiometry (acid/freebase) by 1H NMR or HPLC/IC
# Excerpt: Solution NMR was collected on Bruker 500M NMR Spectrometer using DMSO-d6 and CD3OD as solvents.
# Agilent 1100 HPLC was utilized to analyze the purity and stoichiometry, with detailed method listed in below.
# IC method for counter-ion content measurement is listed below.
# as §2
# [4] = Salt/co-crystal screening: 38 acids, eight solvent systems, solids analysed by XRPD; conditions: acid/freebase charge 1:1 unless label says 2:1, stirred at RT, else 5° C. slurry, anti-solvent addition or evaporation (footnote marks)
# Method: XRPD analysis was performed with a Panalytical X'Pert^3 Powder XRPD on a Si zero-background holder. The 2θ position was calibrated against Panalytical Si reference standard disc.
# A total of 320 salt/co-crystal screening experiments were conducted using 38 acids (two molar ratios for HCl and HBr) and eight solvent systems. Specifically, freebase stock solutions of ˜100 mg/mL were first prepared in each solvent system. For each experiment, 0.2 mL stock solution and the corresponding acids were mixed in a molar charge ratio of 1:1 (acid/freebase, 2:1 for HCl/freebase and HBr/freebase as well), and then stirred at RT. After stirring for 3-5 days, if precipitation was observed, the precipitate was isolated. It no precipitation, the clear solutions were first transferred to slurry at 5° C. to introduce precipitation. Solutions without any precipitation were further subjected to anti-solvent addition (for solvents in column B/D, 0.5 mL hexane was added; for solvents in column G/H, 0.5 mL water was added; for solvent in column F, 0.5 mL n-heptane was added). If still no precipitation, the final clear solutions were transferred to evaporation at RT to induce precipitation. All solids isolated were vacuum dried at RT for 2 hrs before XRPD analysis.
"Solid obtained in salt screening (XRPD), solvent D Acetone/Hexane (1:2, v/v) [4]","Solid obtained in salt screening (XRPD), solvent H Dioxane/H2O (9:1, v/v) [4]","Solid obtained in salt screening (XRPD), solvent A Ethanol [4]","Solid obtained in salt screening (XRPD), solvent B Ethyl acetate/Hexane (1:2, v/v) [4]","Solid obtained in salt screening (XRPD), solvent G Methanol/H2O (19:1, v/v) [4]","Solid obtained in salt screening (XRPD), solvent F Methyl tertbutyl ether [4]","Solid obtained in salt screening (XRPD), solvent C THF [4]","Solid obtained in salt screening (XRPD), solvent E Toluene [4]",Compound,TGA Wt. Loss (%) [1],Speculated Form [1],"DSC Endo. (onset, ° C.) [2]",Stoichiometry (acid/base) [3],TGA Wt. Loss (%) ([1]; up to 60° C.),TGA Wt. Loss (%) ([1]; up to 120° C.)
,,,,,,,,CCCCc1nc(-c2ccc(OCCCN(CC)CC)cc2)cn1-c1ccc(Oc2ccc(Cl)cc2)cc1.O=C(O)C[C@H](O)C(=O)O [L-Malate Type A],negligible,Anhydrate,67.8 °C,1.11,,
,,,,,,,,CCCCc1nc(-c2ccc(OCCCN(CC)CC)cc2)cn1-c1ccc(Oc2ccc(Cl)cc2)cc1.O=C(O)C(O)C(O)C(=O)O [L-Tartrate Type A],,Hydrate,76.4 °C,1.00,2.1 up to %,
,,,,,,,,CCCCc1nc(-c2ccc(OCCCN(CC)CC)cc2)cn1-c1ccc(Oc2ccc(Cl)cc2)cc1.Cl [HCl salt Type A],negligible,Anhydrate,167.0 °C,1.33,,
,,,,,,,,CCCCc1nc(-c2ccc(OCCCN(CC)CC)cc2)cn1-c1ccc(Oc2ccc(Cl)cc2)cc1.O=C1NS(=O)(=O)c2ccccc21 [Saccharinate Type A],negligible,Anhydrate,120.0 °C,1.22,,
,,,,,,,,CCCCc1nc(-c2ccc(OCCCN(CC)CC)cc2)cn1-c1ccc(Oc2ccc(Cl)cc2)cc1.O=C(O)c1cc(O)ccc1O [Gentisate Type B],negligible,Anhydrate,122.9 °C,1.03,,
,,,,,,,,Br.CCCCc1nc(-c2ccc(OCCCN(CC)CC)cc2)cn1-c1ccc(Oc2ccc(Cl)cc2)cc1 [HBr salt Type A],negligible,Anhydrate,169.9 °C,1.05,,
,,,,,,,,Br.CCCCc1nc(-c2ccc(OCCCN(CC)CC)cc2)cn1-c1ccc(Oc2ccc(Cl)cc2)cc1 [HBr salt Type B],negligible,Anhydrate,,2.07,,
gel*,FB Type A^&,gel*,gel*,amorphous^&,amorphous*,gel,gel,COc1cc(C=O)ccc1O [Vanillin],,,,,,
gel*,gel*,gel*,gel*,FB Type A^&,gel*,gel*,gel*,CCCCCCCCCCCCCCCC(=O)O [Palmitic acid],,,,,,
gel,amorphous*,amorphous,gel,amorphous*,amorphous*,gel,gel,O=C(O)/C=C/c1ccccc1 [trans Cinnamic acid],,,,,,
gel,amorphous*,amorphous*,gel*,amorphous*,gel,gel,gel*,C[C@H](O)C(=O)O [L-lactic acid],,,,,,
,amorphous*,gel*,,amorphous*,,gel*,gel*,O=C(O)/C=C\C(=O)O [Maleic acid],,,,,,
amorphous*,amorphous*,gel*,amorphous*,amorphous*,FB Type B*,gel*,gel*,O=C(O)CCC(=O)O [Succnic acid],,,,,,
,,,,,,,,CCCCc1nc(-c2ccc(OCCCN(CC)CC)cc2)cn1-c1ccc(Oc2ccc(Cl)cc2)cc1.O=C(O)c1cc(O)ccc1O [Gentisate Type A],,Hydrate,,1.01,,1.8 up to %
gel,gel*,gel*,gel,gel*,,gel,amorphous*,O=S(=O)(O)O [H2SO4],,,,,,
amorphous*,amorphous*,gel*,amorphous*,amorphous*,gel*,gel*,gel*,O=C(O)CC(=O)O [Malonic acid],,,,,,
,amorphous*,amorphous,,amorphous*,,gel,gel,COc1cc(C(=O)O)ccc1O [Vanillic acid],,,,,,
amorphous*,amorphous*,gel*,,amorphous*,,gel*,gel*,O=C(O)CNC(=O)c1ccccc1 [Hippuric acid],,,,,,

Compound,"Solid obtained in salt screening (XRPD), solvent D Acetone/Hexane (1:2, v/v) [4]","Solid obtained in salt screening (XRPD), solvent H Dioxane/H2O (9:1, v/v) [4]","Solid obtained in salt screening (XRPD), solvent A Ethanol [4]","Solid obtained in salt screening (XRPD), solvent B Ethyl acetate/Hexane (1:2, v/v) [4]","Solid obtained in salt screening (XRPD), solvent G Methanol/H2O (19:1, v/v) [4]","Solid obtained in salt screening (XRPD), solvent F Methyl tertbutyl ether [4]","Solid obtained in salt screening (XRPD), solvent C THF [4]","Solid obtained in salt screening (XRPD), solvent E Toluene [4]",TGA Wt. Loss (%) [1],Speculated Form [1],"DSC Endo. (onset, ° C.) [2]",Stoichiometry (acid/base) [3],TGA Wt. Loss (%) ([1]; up to 60° C.),TGA Wt. Loss (%) ([1]; up to 120° C.)
O=C(O)CCCC(=O)O [Glutaric acid],amorphous*,amorphous*,gel*,amorphous*,amorphous*,amorphous^&,gel*,gel*,,,,,,
O=C1NS(=O)(=O)c2ccccc21 [Saccharin],gel,amorphous*,amorphous*,,,,gel,gel,,,,,,
Br.CCCCc1nc(-c2ccc(OCCCN(CC)CC)cc2)cn1-c1ccc(Oc2ccc(Cl)cc2)cc1 [HBr (1:1)],,gel*,,,,,,,,,,,,
